Measured values published in patent publication US20090048198A1, “COMPOSITIONS AND METHODS FOR NUCLEIC ACID DELIVERY SYSTEMS” (Northwestern University, priority 2007, published 2009).
Values joined by “and” are separate entries in the source; they are usually repeats but may differ in a detail not shown here. Equal values may be shown once.

How the values were obtained:
[1] = test system: Human umbilical artery endothelial cells (HUAECs); test: Transfection of HUAECs with lipoplexes, β-galactosidase reporter assay; format: cell-based; conditions: HUAEC cells in vitro; CMV-β-galactosidase plasmid; β-galactosidase activity 24 h after transfection
Experimental: Human umbilical artery endothelial cells (HUAECs) were obtained from Cambrex (Walkersville, Md.) were and maintained in EGM-2 MV containing 5% fetal bovine serum (FBS) (Cambrex) at 37° C. with 5% CO2. At confluence, the cells were passaged using 0.25 mg/ml Trypsin/EDTA (Cambrex) and were used at passages 5-10 for these experiments. It is noted that human endothelial cells, and particularly HUAECs, are known in the art to be difficult to transfect (see, Teifel, et al., Endothelium, New York, 5, 21-35 (1997); Krotz et al., J. Vasc. Res., 40:425-434 (2003); and Tanner et al., Cardiovascular Research, 35:522-528 (1997)) all of which are herein incorporated by reference. For example, it has been reported that the level of transfection for a reporter gene in human umbilical vein endothelial cells is less than 1% of that of HeLa cells (Edgell et al., BioTechniques, 25:264-272 (1998), herein incorporated by reference).
The cells were seeded in 96-well plates at 24 h before transfection at densities appropriate to give about 80% confluence at the time of transfection. CMV-β-galactosidase plasmid was purchased from Clontech Laboratories Inc. (Palo Alto, Calif.) and propagated and purified by Bayou Biolabs (Harahan, La.). […]

[2] = DSC of hydrated cationic lipid dispersions and binary phase diagrams; format: physicochemical; conditions: for melting transition Tm (solid-liquid crystalline): hydrated dispersions, DSC heating 30° C./h
Experimental: (§1) Chloroform solutions of cationic lipids were mixed in glass vials at the desired ratios, solvent was removed with a N2 stream and, subsequently, high vacuum. The lipid mixtures were hydrated in PBS (50 mM phosphate buffer, 100 mM NaCl, pH 7.2) overnight at room temperature and vortex-mixed for several minutes; then they were subjected to several cycles of freezing and thawing. Samples were subsequently equilibrated overnight at room temperature before measurement.
DSC measurements were performed using a VP-DSC Microcalorimeter (MicroCal Inc., Northampton, Mass.) at 30° C./h. Thermograms were analyzed using OriginLab (Northampton, Mass.) software. The onset and the completion temperatures of the phase transitions needed for the construction of the phase diagram were determined by the intersections of the peak slopes with the baseline on the thermograms. The maximums of the heat capacity curves were taken as the phase transition temperatures of the pure components. For asymmetric or split line shapes of the composite aggregates, the transition temperature was defined as that temperature at which the area of the endotherm was divided into equal halves.

[3] = Synchrotron small-angle X-ray diffraction (SAXD) on heating; format: physicochemical; conditions: SAXD heating scans 20-90° C.
Experimental: as §1
Measurements were performed at Argonne National Laboratory, Advanced Photon Source, DND-CAT (beamline 5-IDD) and BioCAT (beamline 18-ID), using 12 keV X-rays, as previously described [1 R. Koynova, R. C. MacDonald, Mixtures of Cationic Lipid O-Ethylphosphatidylcholine With Membrane Lipids and DNA: Phase Diagrams, Biophys. J. 85 (2003) 2449-2465]. The lipid concentration of the dispersions was 20 wt %. Samples were filled into glass capillaries (Charles Supper Co., Natick, Mass.) and flame-sealed. A Linkam thermal stage (Linkam Sci Instruments, Surrey, England) provided temperature control. Linear heating and cooling scans were performed at rates of 1-5° C./min. Exposure times were typically 0.5 sec. Data were collected using a MAR-CCD detector. Sample-to-detector distance was 1.8-2 m. […] Products of lipid degradation were not detected in these samples, and radiation damage of the lipids was not evident from their X-ray patterns.

| temperature of solid-liquid crystalline (lamellar) transition on heating [3] | SMILES | transfection activity [1] | phase at physiological temperature (37° C.) according to phase diagram [2] | melting transition Tm (solid-liquid crystalline) [2] |
| --- | --- | --- | --- | --- |
| – | CCCCCCCCCCCCCC(=O)OC[C@H](COP(=O)(OCC)OCC[N+](C)(C)C)OC(=O)CCCCCCCCCCCCC (some centres unmarked) [EDMPC] | better transfection agents than EDPPC | liquid crystalline phase | 24 °C |
| – | CCCCCCCCCCCCCCCC(=O)OC[C@H](COP(=O)(OCC)OCC[N+](C)(C)C)OC(=O)CCCCCCCCCCCCCCC (some centres unmarked) [EDPPC] | still transfects DNA into cells | solid phase | 42 °C |
| 25 °C and ~26 °C | CCCCCCCCCCCCCC[N+](C)(C)CCCCCCCCCCCCCC.[Br-] [diC14DAB, Ditetradecyldimethylammonium-bromide] | – | – | 26 °C |
| 47 °C | CCCCCCCCCCCCCCCCCC[N+](C)(C)CCCCCCCCCCCCCCCCCC.[Br-] [diC18DAB, dioctadecyldimethylammonium-bromide] | – | solid phase | ~50 °C |
